Like-named read-outs stand apart in the source and are kept apart here.
Tests used:
[1] = molecular target: human recombinant CB1R (Homo sapiens (Human), UniProt P21554); assay: CB1 receptor binding assay ([3H]CP-55,940 displacement, HEK-293 membranes)
Procedure, shortened: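 Membranes from HEK-293 cells expressing human recombinant CB1R or CB2R were incubated with [3H]CP-55,940 and compound for 120 min at 37 °C in duplicate. The CB2R incubation buffer was 50 mM Tris-HCl, 5 mM MgCl2, 1 mM CaCl2, 0.2% BSA, pH 7.4. Bound radioactivity was filtered and counted, and IC50 was converted to Ki by Cheng–Prusoff.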

[2] = molecular target: T1, human CB2 receptor (Homo sapiens (Human), UniProt P34972); assay: CB2 receptor cAMP assay (DiscoverX HitHunter cAMP XS+); type: cell-based; conditions: for Emax: CHO-K1, read-out: Max Stimulation %
Method: cAMP Hunter CHO-K-1 cell lines expressing human CB2 receptor (Eurofins) were expanded from freezer stocks according to standard procedures. Cells were seeded in a total volume of 20 μL into white walled, 384-well microplates and incubated at 37° C. for the appropriate time prior to testing. cAMP modulation in agonist, inverse agonist or antagonist format was determined using the DiscoverX HitHunter cAMP XS+ assay (Eurofins). For agonist determination, cells were incubated with sample in the presence of EC80 forskolin to induce response. Media was aspirated from cells and replaced with 15 μL 2:1 HBSS/10 mM Hepes: cAMP XS+Ab reagent. Intermediate dilution of sample stocks was performed to generate 4× sample in assay buffer containing 4× EC80 forskolin. 5 μL of 4× sample was added to cells and incubated at 37° C. or room temperature for 30 or 60 minutes. Final assay vehicle concentration was 1%. For inverse agonist determination, cells were preincubated with sample in the presence of EC20 forskolin. Media was aspirated from cells and replaced with 15 μL, 2:1 HBSS/10 mM Hepes: cAMP XS+Ab reagent. Intermediate dilution of sample stocks was performed to generate 4× sample in assay buffer containing 4× EC20 forskolin. 5 μL of 4× sample was added to cells and incubated at 37° C. or room temperature for 30 or 60 minutes. Final assay vehicle concentration was 1%. For antagonist determination, cells were pre-incubated with sample followed by agonist challenge at the EC80 concentration. Media was aspirated from cells and replaced with 10 μL 1:1 HBSS/Hepes: cAMP XS+Ab reagent. 5 μL of 4× compound was added to the cells and incubated at 37° C. or room temperature for 30 minutes. 5 μL of 4× EC80 agonist was added to cells and incubated at 37° C. or room temperature for 30 or 60 minutes. EC80 forksolin was included. After appropriate compound incubation, assay signal was generated through incubation with 20 μL cAMP XS+ED/CL lysis cocktail for one hour followed by incubation with 20 μL, cAMP XS+EA reagent for three hours at room temperature. Microplates were read following signal generation with a PerkinElmer Envision instrument for chemiluminescent signal detection. Compound activity was analyzed using CBIS data analysis suite (ChemInnovation, CA). For agonist mode assay, percentage activity is calculated using the following formula: % Activity=100%×(1−(mean RLU of test sample−mean RLU of MAX control)/(mean RLU of vehicle control−mean RLU of MAX control)). For inverse agonist mode assay, percentage activity is calculated using the following formula: % Inverse Agonist Activity=100%×((mean RLU of test sample−mean RLU of EC20 forskolin)/(mean RLU of forskolin positive control−mean RLU of EC20 control)). For antagonist mode assay, percentage inhibition is calculated using the following formula: % Inhibition=100%×(mean RLU of test sample−mean RLU of EC80 control)/(mean RLU of forskolin positive control−mean RLU of EC80 control). Data are analyzed and IC50 is calculated using GraphPad Prism 5 and the model “log(inhibitor) vs. response—Variable slope”.

[3] = molecular target: T1, human CB2 receptor; assay: CB2 receptor binding assay ([3H]CP-55,940 displacement, HEK-293 membranes)
[4] = membranes of HEK-293 cells with human recombinant CB1R, [3H]CP-55,940, read-out: CB1 IC50
[5] = membranes of HEK-293 cells with human recombinant CB2R, [3H]CP-55,940, read-out: CB2 IC50
[6] = membranes of HEK-293 cells with human recombinant CB2R, [3H]CP-55,940, class symbols, read-out: CB2 IC50
[7] = membranes of HEK-293 cells with human recombinant CB1R, [3H]CP-55,940, class symbols, read-out: CB1 IC50

Chain of human recombinant CB1R (P21554 whole entry): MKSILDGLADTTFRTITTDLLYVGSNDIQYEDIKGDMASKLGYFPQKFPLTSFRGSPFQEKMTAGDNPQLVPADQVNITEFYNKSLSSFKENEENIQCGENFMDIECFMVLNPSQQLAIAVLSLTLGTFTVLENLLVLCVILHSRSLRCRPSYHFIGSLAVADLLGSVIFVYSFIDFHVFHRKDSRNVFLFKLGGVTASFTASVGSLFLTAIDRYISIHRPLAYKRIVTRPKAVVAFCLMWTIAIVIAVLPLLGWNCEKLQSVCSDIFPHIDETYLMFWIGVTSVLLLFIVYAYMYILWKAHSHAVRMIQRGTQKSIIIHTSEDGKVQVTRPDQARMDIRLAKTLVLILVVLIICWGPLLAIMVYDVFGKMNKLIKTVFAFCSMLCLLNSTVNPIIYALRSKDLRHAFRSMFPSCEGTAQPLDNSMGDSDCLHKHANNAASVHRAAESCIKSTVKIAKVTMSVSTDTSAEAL
T1 sequence (P34972 whole entry): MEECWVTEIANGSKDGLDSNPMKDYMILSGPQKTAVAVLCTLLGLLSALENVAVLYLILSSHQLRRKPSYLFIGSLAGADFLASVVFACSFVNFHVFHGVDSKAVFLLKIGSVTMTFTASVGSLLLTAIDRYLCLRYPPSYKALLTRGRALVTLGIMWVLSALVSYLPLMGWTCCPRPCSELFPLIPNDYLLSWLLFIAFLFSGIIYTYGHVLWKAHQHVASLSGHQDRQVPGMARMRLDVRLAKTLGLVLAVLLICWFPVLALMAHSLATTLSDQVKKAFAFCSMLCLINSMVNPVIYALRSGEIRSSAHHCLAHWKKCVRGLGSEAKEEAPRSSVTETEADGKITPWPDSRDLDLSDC

Compound	IC50 [1, 4] [nM]	IC50 [3, 6] [nM]	IC50 [1, 7] [nM]	further results
CC1CCC(NC(=O)c2c(O)c3cc(-c4ccc(F)cc4)cnc3n(CCN3CCOCC3)c2=O)CC1 (stereo not shown) [Compound 5, 6-(4-fluorophenyl)-4-hydroxy-N-(4-methylcyclohexyl)-1-(2-morpholinoethyl)-2-oxo-1,2-dihydro-1,8-naphthyridine-3-carboxamide]	3870	–	–	IC50 [2]: 70 nM; Emax [2]: 75%; IC50 [3, 5]: 6.5 nM
CC1CCC(NC(=O)c2c(O)c3cc(-c4ccc(C#N)cc4)cnc3n(CCN3CCOCC3)c2=O)CC1 (stereo not shown) [Compound 16, 6-(4-cyanophenyl)-4-hydroxy-N-(4-methylcyclohexyl)-1-(2-morpholinoethyl)-2-oxo-1,2-dihydro-1,8-naphthyridine-3-carboxamide]	> 10000	–	–	Emax [2]: 30%
O=C(NC1CC2(CCC2)C1)c1cc2cc(-c3ccc(OC(F)F)cn3)cnc2n(CCN2CCOCC2)c1=O [Compound 47, 6-(5-(difluoromethoxy)pyridin-2-yl)-1-(2-morpholinoethyl)-2-oxo-N-(spiro[3.3]heptan-2-yl)-1,2-dihydro-1,8-naphthyridine-3-carboxamide]	> 10000	–	–	Emax [2]: 48%
CC(NC(=O)c1cc2cc(-c3ccc(C#N)cn3)cnc2n(CCN2CCOCC2)c1=O)c1ccc(F)cc1 (stereo not shown) [Compound 58, 6-(5-cyanopyridin-2-yl)-N-(1-(4-fluorophenyl)ethyl)-1-(2-morpholinoethyl)-2-oxo-1,2-dihydro-1,8-naphthyridine-3-carboxamide]	> 10000	–	–	Emax [2]: 77%
N#Cc1ccc(C2(NC(=O)c3cc4cc(Br)cnc4n(Cc4ccc(F)cc4)c3=O)CC2)cc1 [Compound 92, 6-bromo-N-(1-(4-cyanophenyl)cyclopropyl)-1-(4-fluorobenzyl)-2-oxo-1,2-dihydro-1,8-naphthyridine-3-carboxamide]	–	< 100	–	IC50 [2]: 3.6 nM; Emax [2]: 108%
C[C@H]1CC[C@@H](NC(=O)c2c(O)c3cccnc3n(Cc3ccc(F)cc3)c2=O)CC1 [Compound 143, 1-(4-fluorobenzyl)-4-hydroxy-N-((1s, 4s)-4-methylcyclohexyl)-2-oxo-1,2-dihydro-1,8-naphthyridine-3-carboxamide]	3360	–	–	IC50 [3, 5]: 34 nM
C[C@H]1CC[C@H](NC(=O)c2c(O)c3cccnc3n(Cc3ccc(F)cc3)c2=O)CC1 [Compound 144, 1-(4-fluorobenzyl)-4-hydroxy-N-((1r, 4r)-4-methylcyclohexyl)-2-oxo-1,2-dihydro-1,8-naphthyridine-3-carboxamide]	> 10000	–	–	IC50 [3, 5]: 1500 nM
O=C(NC1(CO)CCCCC1)c1c(O)c2cccnc2n(Cc2ccc(F)cc2)c1=O [Compound 145, 1-[(4-fluorophenyl)methyl]-4-hydroxy-N-[1-(hydroxymethyl)cyclohexyl]-2-oxo-1,8-naphthyridine-3-carboxamide]	–	< 100	> 1000	–
O=C(NC12CC(C1)C2)c1c(O)c2nccnc2n(CCN2CCOCC2)c1=O [Compound 146, N-(bicyclo[1.1.1]pentan-1-yl)-8-hydroxy-5-(2-morpholinoethyl)-6-oxo-5,6-dihydropyrido[2,3-b]pyrazine-7-carboxamide]	–	> 1000	> 1000	–
O=C(NC12CC(C1)C2)c1c(O)c2nccnc2n(Cc2ccc(F)cc2)c1=O [Compound 147, N-(bicyclo[1.1.1]pentan-1-yl)-5-(4-fluorobenzyl)-8-hydroxy-6-oxo-5,6-dihydropyrido[2,3-b]pyrazine-7-carboxamide]	–	> 1000	> 1000	–
COc1ccc(-c2cnc3c(c2)c(O)c(C(=O)N[C@H]2CC[C@H](C)CC2)c(=O)n3CCN2CCOCC2)cc1 [Compound 148, 4-hydroxy-6-(4-methoxyphenyl)-N-((1R,4R)-4-methylcyclohexyl)-1-(2-morpholinoethyl)-2-oxo-1,2-dihydro-1,8-naphthyridine-3-carboxamide]	–	> 1000	> 1000	–
COc1ccc(-c2cnc3c(c2)c(O)c(C(=O)N[C@H]2CC[C@@H](C)CC2)c(=O)n3CCN2CCOCC2)cc1 [Compound 149, 4-hydroxy-6-(4-methoxyphenyl)-N-((1s,4S)-4-methylcyclohexyl)-1-(2-morpholinoethyl)-2-oxo-1,2-dihydro-1,8-naphthyridine-3-carboxamide]	–	< 100	> 1000	–
COc1ccc(-c2cnc3c(c2)c(O)c(C(=O)N[C@H](C)c2ccc(F)cc2)c(=O)n3CCN2CCOCC2)cc1 [Compound 150, (R)—N-(1-(4-fluorophenyl)ethyl)-4-hydroxy-6-(4-methoxyphenyl)-1-(2-morpholinoethyl)-2-oxo-1,2-dihydro-1,8-naphthyridine-3-carboxamide]	–	–	> 1000	IC50 [3]: 100 to 999 nM
COc1ccc(-c2cnc3c(c2)c(O)c(C(=O)N[C@@H](C)c2ccc(F)cc2)c(=O)n3CCN2CCOCC2)cc1 [Compound 151, (S)—N-(1-(4-fluorophenyl)ethyl)-4-hydroxy-6-(4-methoxyphenyl)-1-(2-morpholinoethyl)-2-oxo-1,2-dihydro-1,8-naphthyridine-3-carboxamide]	–	> 1000	> 1000	–
COc1ccc(-c2cnc3c(c2)c(O)c(C(=O)NC2CCCCC2)c(=O)n3CCN2CCOCC2)cc1 [Compound 152, N-cyclohexyl-4-hydroxy-6-(4-methoxyphenyl)-1-(2-morpholinoethyl)-2-oxo-1,2-dihydro-1,8-naphthyridine-3-carboxamide]	–	–	> 1000	IC50 [3]: 100 to 999 nM
O=C(NC1CCCCC1)c1c(O)c2cc(-c3ccc(F)cc3)cnc2n(CCN2CCOCC2)c1=O [Compound 153, N-cyclohexyl-6-(4-fluorophenyl)-4-hydroxy-1-(2-morpholinoethyl)-2-oxo-1,2-dihydro-1,8-naphthyridine-3-carboxamide]	–	< 100	> 1000	–
C[C@H]1CC[C@H](NC(=O)c2c(O)c3cc(-c4ccc(OC(F)F)cc4)cnc3n(CCN3CCOCC3)c2=O)CC1 [Compound 155, 6-(4-(difluoromethoxy)phenyl)-4-hydroxy-N-((1R,4R)-4-methylcyclohexyl)-1-(2-morpholinoethyl)-2-oxo-1,2-dihydro-1,8-naphthyridine-3-carboxamide]	–	> 1000	> 1000	–
C[C@H]1CC[C@@H](NC(=O)c2c(O)c3cc(-c4ccc(OC(F)F)cc4)ccc3n(CCN3CCOCC3)c2=O)CC1 [Compound 158, 6-(4-(difluoromethoxy)phenyl)-4-hydroxy-N-((1s,4S)-4-methylcyclohexyl)-1-(2-morpholinoethyl)-2-oxo-1,2-dihydroquinoline-3-carboxamide]	–	< 100	> 1000	–
C[C@H]1CC[C@@H](NC(=O)c2c(O)c3cc(-c4ccc(F)cc4)ccc3n(CCN3CCOCC3)c2=O)CC1 [Compound 159, 6-(4-fluorophenyl)-4-hydroxy-N-((1s,4S)-4-methylcyclohexyl)-1-(2-morpholinoethyl)-2-oxo-1,2-dihydroquinoline-3-carboxamide]	–	< 100	–	IC50 [1]: 100 to 999 nM
COc1ccc(-c2ccc3c(c2)c(O)c(C(=O)N[C@H]2CC[C@@H](C)CC2)c(=O)n3CCN2CCOCC2)cc1 [Compound 161, 4-hydroxy-6-(4-methoxyphenyl)-N-((1s,4S)-4-methylcyclohexyl)-1-(2-morpholinoethyl)-2-oxo-1,2-dihydroquinoline-3-carboxamide]	–	< 100	> 1000	–
